Laboratory results: publication PMC12040169 (PLOS Biology, 2025)

Test: in vitro
Settings: human, hela cells, % viability

In order of rising viability at 28.5 h, 10 µM:
1. Cc1cc(C(=O)CSc2nnc(N3CCCC3)n2C2CC2)c(C)n1C [CBK306051]  65.1%
2. CCOC(=O)C1CSCCN1C(=O)c1cc(C)n(-c2nccs2)c1C (centres unmarked) [CBK305884]  75%
3. CC(=O)Nc1cccc(C(=O)OCC(=O)N2CCCCC2C)c1 (centres unmarked) [CBK305868]  76.6%
4. CCOC(=O)N1CCN(Cc2ccc(OCc3cccnc3)cc2)CC1 [CBK305883]  79.1%
5. Cc1nc(CN2CCN(c3ccc4nnnn4n3)CC2)cs1 [CBK306056]  79.3%
6. Cc1cc(C(=O)CSc2nc3cc(Cl)cnc3[nH]2)c(C)n1C1CC1 [CBK305867]  79.5%
7. Cc1cc(NC(=O)N2CCN(c3ncccc3C#N)CC2)no1 [CBK305901]  80.5%
8. Cc1nn(C)c(C)c1NC(=O)CN1CCN(c2cccc(Cl)c2)CC1 [CBK306052]  81.1%
9. CCN1CCN(c2ccc(NC(=O)Cc3cn4ccsc4n3)cc2)CC1 [CBK305892]  81.3%
10. COC(=O)c1ccc2c(=O)n(CC(C)C)c(SC)nc2c1 [CBK306042]  81.3%
11. CCOC(=O)c1sc2nc(C(C)N3CCOCC3)[nH]c(=O)c2c1C (centres unmarked) [CBK305862]  82.5%
12. Cc1oc(NC(=O)CN2CCN(c3cccc(Cl)c3)CC2)c(C#N)c1C [CBK305906]  82.5%
13. CCOC(=O)N1CCN(S(=O)(=O)c2ccc3oc(=O)ccc3c2)CC1 [CBK305870]  82.6%
14. COC(=O)c1sc2[nH]c(CN(C)Cc3ccco3)nc(=O)c2c1C [CBK306047]  82.6%
15. Cc1nn(C)c(C)c1NC(=O)CN1CCN(c2ccccc2Cl)CC1 [CBK306058]  82.6%
16. Cc1cc(C)n2ncc(C(=O)N3CCCC3c3ccc(F)cc3)c2n1 (centres unmarked) [CBK305885]  82.9%
17. CC1CCc2c(sc3ncnc(OCC(=O)NC4CCCC4)c23)C1 (centres unmarked) [CBK305893]  83.1%
18. Cc1cc(Br)ccc1C(=O)N1CC(C(N)=O)CCC1C (centres unmarked) [CBK305954]  83.2%
19. O=C(CN1CCC(NC(=O)c2cccs2)CC1)Nc1ccc(F)c(F)c1 [CBK305991]  83.8%
20. Cc1nn(-c2ccccc2)c(Cl)c1CN1C(=O)NC2(CCCCC2)C1=O [CBK306043]  83.8%
21. CCCCn1c(SC(C)C(N)=O)nc2cc(C(=O)OC)ccc2c1=O (centres unmarked) [CBK305877]  84%
22. COC(=O)Cn1c(=O)c2c(nc3oc(C(C)(C)C)cn32)n(C)c1=O [CBK306029]  84.5%
23. Cc1oc(NC(=O)CN2CCN(c3ccccc3Cl)CC2)c(C#N)c1C [CBK305908]  84.7%
24. CCc1ccc(NC(=O)CN(CCO)Cc2cc(Br)ccc2F)cc1 [CBK305968]  84.8%
25. Cc1cc(C(=O)N2CCc3c(sc4ncnc(N)c34)C2)on1 [CBK306067]  85.1%
26. CC1CCc2c(sc3ncnc(NCCCN4CCCCCC4=O)c23)C1 (centres unmarked) [CBK305947]  85.4%
27. Cc1nnc(CCNC(=O)c2cccc(C#N)c2)n1C [CBK306017]  85.4%
28. N#Cc1ccc(OCC(=O)Nc2cccnc2-n2cncn2)cc1 [CBK306004]  85.9%
29. CCN(CCO)C(=O)C(C)Oc1cc(C)ccc1Cl (centres unmarked) [CBK306019]  86.6%
30. Cc1oc(NC(=O)CN2CCN(c3ccc(F)cc3)CC2)c(C#N)c1C [CBK305907]  86.7%
31. Cc1ccc(-c2nn(CCC#N)cc2C(=O)N2CCCC2)cc1C [CBK305974]  86.8%
32. Cc1cc(OCC(=O)N2CCN(c3ccccc3F)CC2)no1 [CBK305898]  87.1%
33. Cn1nc(C(=O)NCC(c2ccccc2Cl)N2CCOCC2)ccc1=O (centres unmarked) [CBK305886]  87.3%
34. CS(=O)(=O)N1CCC(Nc2nc(-c3cccs3)nc3ccccc23)CC1 [CBK305987]  87.3%
35. CCOC(=O)c1cc2cc(NC(=O)N(CCO)C3CC3)ccc2s1 [CBK306007]  87.6%
36. CCN(CC(C)C#N)C(=O)c1cc2ccccc2oc1=O (centres unmarked) [CBK305992]  87.8%
37. CC(=O)C(C)n1c(CN2CCCC(C)C2)nc2c1c(=O)n(C)c(=O)n2C (centres unmarked) [CBK306061]  88.2%
38. CN(C(=O)CCc1nc2sc3c(c2c(=O)[nH]1)CCCC3)C1CCCCC1 [CBK306075]  88.2%
39. CN(C)C(=O)c1cccc(CNc2ncnc3c2cnn3CCC#N)c1 [CBK305955]  88.3%
40. Cc1nc(NC(=O)CN2CCN(c3cccc(Cl)c3)CC2)sc1C [CBK305902]  88.5%
41. FC(F)(F)c1nnc2ccc(N3CCN(Cc4ccsc4)CC3)nn12 [CBK305930]  88.6%
42. COc1ccc(-c2csc(N3CCN(C)CC3)n2)cc1F [CBK305910]  88.7%
43. CC1CCCN(Cc2nc3c([nH]2)c(=O)n(C)c(=O)n3C)C1 (centres unmarked) [CBK306054]  88.7%
44. CCOC(=O)CN1CCN(c2cc(C#N)ccn2)CC1 [CBK306006]  89.3%
45. CCNc1nc(-c2ccc3c(c2)CCCN3S(C)(=O)=O)cs1 [CBK305861]  89.8%
46. Cc1noc(C)c1CN1CCC(c2ccccc2)CC1 [CBK306001]  89.9%
47. Cc1cccc(OCC(=O)Nc2ncccc2OCCCC#N)c1 [CBK305918]  90.5%
48. COc1ccc(Cl)cc1CN(C)C(=O)c1ccc[nH]c1=O [CBK305933]  90.6%
49. O=C(CCc1nc2sc3c(c2c(=O)[nH]1)CCCC3)N1CCCC1 [CBK306069]  90.8%
50. CC(=O)C(C)n1c(=O)c2c(nc3oc(C(C)(C)C)cn32)n(C)c1=O (centres unmarked) [CBK306027]  91.1%
51. CC(C)Cn1c(CN2CCOCC2)nc2c1c(=O)n(C)c(=O)n2C [CBK305913]  91.3%
52. O=C(NCCN1CCCCC1)C1CC(=O)N(CCc2ccccc2)C1 (centres unmarked) [CBK305986]  91.7%
53. CCNS(=O)(=O)c1ccc2c(c1)N(Cc1cccnc1C)CC2 [CBK306020]  92.1%
54. Cc1cc(N2CCOC(c3nc(C)n[nH]3)C2)c2ccc(F)c(F)c2n1 (centres unmarked) [CBK306018]  92.2%
55. CCN(CC)C(=O)c1cn(CCC#N)nc1-c1cccc(OC)c1 [CBK305941]  92.6%
56. CCCC(=O)Nc1ccc(OCc2nnc(C)o2)c(C(C)=O)c1 [CBK305943]  92.9%
57. CCOc1ccc2c(c1)CN(CC(=O)Nc1cc(C)no1)CC2 [CBK305993]  92.9%
58. O=C1CN(Cc2nc(-c3cccc(C(F)(F)F)c3)no2)CCN1 [CBK306038]  92.9%
59. CCN(CC(=O)NCc1ccc(F)cc1)S(=O)(=O)c1c(C)n[nH]c1C [CBK306074]  93.3%
60. CC(=O)Nc1ccc(-c2csc(N3CCN(C)CC3)n2)cc1 [CBK305865]  93.6%
61. CCn1c(SCC(=O)NC(=O)NC2CCCCC2)nc2ccccc21 [CBK306037]  93.6%
62. Cc1c(C(=O)N2CCCC2C(N)=O)nnn1Cc1ccc(F)cc1F (centres unmarked) [CBK305925]  94.5%
63. CC(=O)Nc1cccc(-n2nnnc2SC2CCCC2)c1 [CBK305996]  95.3%
64. CCC1CCC2(CC1)NC(=O)N(CC(=O)Nc1nccs1)C2=O (centres unmarked) [CBK305936]  95.9%
65. COc1ccc(CC(=O)NC(CCSC)c2nnc3ccccn23)cc1 (centres unmarked) [CBK306077]  96%
66. CC(=O)N(C)Cc1cccc(Nc2ncnc3c2cnn3CCO)c1 [CBK305979]  96.1%
67. COc1ccccc1CN(Cc1cccs1)C(=O)Cn1cnnn1 [CBK305866]  96.5%
68. COc1ccc(C)cc1-n1ccc(C(=O)N2CCSCC2)n1 [CBK305972]  96.5%
69. Cc1ccc(-c2nn(CCC#N)cc2C(=O)N2CCOCC2)cc1C [CBK305940]  96.7%
70. CCn1cnnc1CNC(=O)N1CCCN(Cc2cccs2)CC1 [CBK305882]  97.6%
71. Cn1cccc1C(=O)OCC(=O)N1CCCCC1 [CBK305903]  99.5%
72. CC1CN(c2ccc(CNc3ncccc3C#N)cn2)CCO1 (centres unmarked) [CBK305957]  99.5%
73. O=C(CN1CCCN(c2nccs2)CC1)Nc1cc(Cl)ccc1Cl [CBK305921]  99.7%
74. COc1ccccc1CN(C)C(C)C(=O)Nc1ccc(NC(C)=O)cc1 (centres unmarked) [CBK305873]  100%
75. COc1ccc(CNC(=O)c2sccc2S(=O)(=O)N2CCCCC2)cc1 [CBK305904]  101%
76. O=C(CN1CCC(NC(=O)c2cccs2)CC1)Nc1cc(F)ccc1F [CBK305997]  102%
77. CCCn1c(CN2CCOCC2)nc2c1c(=O)n(C)c(=O)n2C [CBK305911]  103%
78. CCOc1ccc(NC(=O)CCc2ncc(C(C)(C)C)o2)c(C)c1 [CBK306021]  104%
79. Cn1ccc(NC(=O)c2cccc(S(=O)(=O)N3CCCC3)c2)n1 [CBK306032]  104%
80. CC(=O)Nc1cccc(C(=O)OCC(=O)c2cccs2)c1 [CBK306040]  105%
81. COC(=O)C(C)(C)NC(=O)c1ccn(-c2cc(C)ccc2OC)n1 [CBK305989]  107%
82. CC(C)Cc1noc(CN2CCC(C(=O)NCc3ccco3)CC2)n1 [CBK305995]  107%
83. O=C(NCC(=O)N1CCc2ccccc2C1)C1CCCCC1 [CBK306049]  107%
84. Cc1noc(C)c1CCC(=O)NCc1cccc(C#N)c1 [CBK305938]  108%
85. CC(Sc1nc2ccc(F)cc2c(=O)[nH]1)C(=O)N1CCOCC1 (centres unmarked) [CBK305958]  108%
86. CSc1nnc(CCCNC(=O)c2cccc(C#N)c2)n1CC(C)C [CBK306023]  108%
87. COCCn1c(CN2CCCC(C)C2)nc2c1c(=O)n(C)c(=O)n2C (centres unmarked) [CBK306063]  108%
88. O=C(Cn1cccnc1=O)NCc1cccnc1OCC(F)(F)F [CBK305949]  109%
89. COC(=O)CCn1c(=O)c2c(nc3oc(C)c(C)n32)n(C)c1=O [CBK306033]  109%
90. COC(=O)c1ccc2c(=O)n(CC3CCCO3)c(SCCO)nc2c1 (centres unmarked) [CBK306041]  109%
91. OCCn1ncc2c(Nc3cccc(Cn4cncn4)c3)ncnc21 [CBK305965]  115%
92. O=C(c1cccs1)N1CCN(Cc2cc(=O)n3ccsc3n2)CC1 [CBK305872]  119%
